Measurements as given in article PMC12196455, “Effect of Tegoprazan on Tacrolimus and Mycophenolate Levels in Kidney Transplant Recipients: A Randomized Controlled Study Using a Smart Trial Platform” (Pharmaceuticals, 2025).

What was measured:
[1] = Tacrolimus blood trough level (12 h post-dose, chemiluminescent immunoassay) in the randomized trial of tegoprazan vs pantoprazole; assay type: in vivo, human (kidney transplant recipients); conditions: for Tacrolimus trough level: mean ± SD
From the text: (§1) This study was a prospective, open-label, randomized controlled trial conducted on KTRs receiving tacrolimus, mycophenolate, and steroids. This study was registered at the Clinical Research Information Service (CRIS), Republic of Korea (Registration No. KCT 0010481, registration date: 20 May 2025). Data analysis took place at Kyungpook National University Hospital, Republic of Korea, from August 2022 to May 2023. The trial adhered to the approval guidelines of the Institutional Review Board of Kyungpook National University Hospital (IRB No. 2022-02-013, approval date: 31 March 2022).
(§2) Patients were randomly assigned to either the P-CAB (tegoprazan 50 mg) group or the PPI (pantoprazole 20 mg) group. Enrolled KTRs were scheduled for four visits at baseline, 4, 8, and 12 weeks post-randomization. The dosage of immunosuppressants remained unchanged throughout the 12-week study period. Blood tests, including measurements of immunosuppressant trough levels, serum creatinine levels, estimated glomerular filtration rate (eGFR), and vital signs, were conducted at each visit.
(§3) The primary outcome was to compare changes in drug concentrations of tacrolimus and mycophenolate following the administration of tegoprazan in KTRs.
(§4) Trough levels of tacrolimus and mycophenolate were measured at 12 h post-dose, following standard clinical practice for therapeutic drug monitoring in transplant recipients. Blood samples were collected at scheduled morning visits, and the 12 h interval was confirmed using electronic pillbox adherence data or patient interviews. Tacrolimus concentrations were measured using the Dimension® TAC Flex® reagent cartridge (Siemens Healthcare Diagnostics Inc., Newark, NJ, USA) on the Siemens Dimension® Integrated Chemistry System, employing a homogeneous chemiluminescent immunoassay (CLIA) method. Mycophenolic acid concentrations were measured using the Dimension® MPA Flex® reagent cartridge (Siemens Healthcare Diagnostics Inc., Newark, USA) on the same system, based on a particle-enhanced turbidimetric inhibition immunoassay (PETINIA) method. All assays were conducted in the Department of Laboratory Medicine at the study hospital.

[2] = Mycophenolate (mycophenolic acid) trough level (12 h post-dose, PETINIA immunoassay) in the randomized trial of tegoprazan vs pantoprazole; assay type: in vivo, human (kidney transplant recipients); conditions: for Mycophenolate trough level: mean ± SD
From the text: as §1, §2, §3, §4

[3] = Transplant outcomes (eGFR, de novo DSA, BPAR, allograft loss); assay type: in vivo, human (kidney transplant recipients); conditions: for eGFR: mean ± SD; for Allograft Loss / BPAR: during the 12-week study period
Protocol: Patients were randomly assigned to either the P-CAB (tegoprazan 50 mg) group or the PPI (pantoprazole 20 mg) group. Enrolled KTRs were scheduled for four visits at baseline, 4, 8, and 12 weeks post-randomization. The dosage of immunosuppressants remained unchanged throughout the 12-week study period. Blood tests, including measurements of immunosuppressant trough levels, serum creatinine levels, estimated glomerular filtration rate (eGFR), and vital signs, were conducted at each visit. The collected data included patient demographics such as gender, age, height, weight, blood tacrolimus, mycophenolate concentrations, kidney function, liver function tests, allograft loss, and acute rejection episodes. We collected DSA information. DSA was identified using the Luminex single-antigen assay (LSA). […] The secondary outcome included evaluating transplant outcomes and GI symptoms using questionnaires. The transplant outcomes assessed were changes in eGFR, biopsy-proven acute rejection (BPAR), allograft loss, and de novo DSA during the study period. De novo DSA was defined as the new appearance of antibodies against mismatched donor human leukocyte antigen (HLA) not present at baseline.

[4] = GI symptom questionnaires (GERD-HRQL, RDQ) via electronic diary app; assay type: in vivo, human (kidney transplant recipients); design: key to GERD-HRQL score: sum of 10 items each scored 0-5; higher = poorer quality of life; conditions: mean ± SD
Protocol: Changes in GI symptoms were measured and recorded using a self-developed electronic diary app installed on participants’ mobile phones. This app facilitated the assessment of GI symptoms through the Gastroesophageal Reflux Disease–Health-Related Quality of Life (GERD-HRQL) and Reflux Disease Questionnaire (RDQ). The GERD-HRQL scale comprises 10 items, addressing both GI symptoms and the patient’s overall condition. Each item is scored on a scale from 0 to 5, with higher scores indicating a poorer quality of life. The RDQ is a 6-item self-administered questionnaire designed to evaluate the severity and frequency of heartburn sensation, gastric acid regurgitation, and dyspepsia.
The secondary outcome included evaluating transplant outcomes and GI symptoms using questionnaires. The transplant outcomes assessed were changes in eGFR, biopsy-proven acute rejection (BPAR), allograft loss, and de novo DSA during the study period. De novo DSA was defined as the new appearance of antibodies against mismatched donor human leukocyte antigen (HLA) not present at baseline.

Adverse event monitoring = assay type: in vivo, human (kidney transplant recipients); conditions: 12 weeks; for Overall incidence of AEs: p = 0.032 between groups
Protocol: Safety evaluations were conducted through comprehensive monitoring, including physical examinations, clinical laboratory tests, vital signs, and the documentation of adverse events (AEs). Participants were encouraged to voluntarily report AEs regularly throughout the study.

[5] = design: method as in PMID 34246485; conditions: result in words; cited from earlier work
[6] = Time in therapeutic range (TTR) analysis of tacrolimus and mycophenolate; assay type: in vivo, human (kidney transplant recipients); conditions: across all visits; result in words
Protocol: Continuous variables were expressed as mean ± standard deviation, while categorical variables were presented as numbers and percentages. For normally distributed data, t-tests were utilized; for non-normally distributed data, the Mann–Whitney U test was applied. Intragroup variations between baseline and 12 weeks were analyzed using paired t-tests. Differences in the frequency of transplant outcomes were assessed using the χ^2 test or Fisher’s exact test. Differences in GI symptom questionnaire scores, assessed via e-diary surveys, were analyzed using t-tests or the Mann–Whitney U test, as appropriate. We conducted a TTR analysis for both tacrolimus and mycophenolate to evaluate the potential effects of tegoprazan on immunosuppressant stability. The predefined therapeutic range was set at […] for tacrolimus and at 1–3.5 µg/mL for mycophenolate. TTR was calculated as the proportion of time each drug level remained within the therapeutic window across the study period. All statistical analyses were performed using IBM SPSS Statistics 25 for Windows, […]. A p-value of <0.05 was considered statistically significant.

[7] = result in words, cited from earlier work
[8] = result in words, cited from earlier work; remark: listed apart in the source
[9] = 12-week follow-up in KTRs, result in words
[10] = Baseline, higher score = poorer quality of life
[11] = P-CAB group (tegoprazan 50 mg, n = 26), Baseline
[12] = P-CAB group (tegoprazan 50 mg, n = 26), Week 4
[13] = P-CAB group (tegoprazan 50 mg, n = 26), Week 8
[14] = P-CAB group (tegoprazan 50 mg, n = 26), Week 12
[15] = PPI group (pantoprazole 20 mg, n = 25), Baseline
[16] = PPI group (pantoprazole 20 mg, n = 25), Week 4
[17] = PPI group (pantoprazole 20 mg, n = 25), Week 8
[18] = PPI group (pantoprazole 20 mg, n = 25), Week 12

Cc1nc2cc(C(=O)N(C)C)cc(O[C@H]3CCOc4cc(F)cc(F)c43)c2[nH]1 [P-CAB, tegoprazan]
Effect on blood trough level of tacrolimus [1, 9]: does not alter
Effect on blood trough level of mycophenolate [2, 9]: does not alter
eGFR ([3]; Baseline): 62.8 ± 17.1 mL/min/1.73 m^2
eGFR ([3]; Week 4): 61.8 ± 13.0 mL/min/1.73 m^2
eGFR ([3]; Week 8): 60.6 ± 12.8 mL/min/1.73 m^2
eGFR ([3]; Week 12): 63.5 ± 16.5 mL/min/1.73 m^2
Allograft Loss [3]: 0 number
BPAR [3]: 0 number
RDQ score ([4]; Baseline): 4.7 ± 4.7
GERD-HRQL score [4, 10]: 4.9 ± 4.3
GERD-HRQL score ([4]; Week 4): 0.9 ± 1.4
RDQ score ([4]; Week 4): 1.0 ± 2.1
GERD-HRQL score ([4]; Week 8): 0.7 ± 1.0
RDQ score ([4]; Week 8): 0.6 ± 1.2
GERD-HRQL score ([4]; Week 12): 0.7 ± 1.6
RDQ score ([4]; Week 12): 0.7 ± 1.9
AE: Abdominal discomfort (Adverse event monitoring): 3 (11.5) number (%)
AE: Arthralgia (Adverse event monitoring): 1 (3.8) number (%)
AE: Constipation (Adverse event monitoring): 2 (7.7) number (%)
AE: Diarrhea (Adverse event monitoring): 5 (19.2) number (%)
AE: Headache (Adverse event monitoring): 0 (0.0) number (%)
AE: Hypertension (Adverse event monitoring): 4 (15.4) number (%)
AE: Hypoglycemia (Adverse event monitoring): 1 (3.8) number (%)
AE: Myalgia (Adverse event monitoring): 0 (0.0) number (%)
AE: Nausea, vomiting (Adverse event monitoring): 3 (11.5) number (%)
AE: Productive cough, sputum (Adverse event monitoring): 4 (15.4) number (%)
AE: Pyrexia (Adverse event monitoring): 0 (0.0) number (%)
AE: Toothache (Adverse event monitoring): 0 (0.0) number (%)
AE: Upper respiratory tract infection (Adverse event monitoring): 2 (7.7) number (%)
AE: Urinary tract infection (Adverse event monitoring): 0 (0.0) number (%)
AE: Vertigo (Adverse event monitoring): 0 (0.0) number (%)
Participants with AEs (Adverse event monitoring): 15 (57.7) number (%)
Participants with SAEs (Adverse event monitoring): 2 (7.7) number (%)
Withdrawal due to AEs (Adverse event monitoring): 0 (0.0) number (%)
Cases of serious adverse events (SAEs) (Adverse event monitoring; none related to the study drug): two
Overall incidence of AEs (Adverse event monitoring): 57.7%
AE: COVID-19 (Adverse event monitoring; human, in vivo): 0 (0.0) number (%)
Effect of food intake on pharmacokinetic and pharmacodynamic properties [5]: unaffected by food intake

C=CC[C@@H]1/C=C(\C)C[C@H](C)C[C@H](OC)[C@H]2O[C@@](O)(C(=O)C(=O)N3CCCC[C@H]3C(=O)O[C@H](/C(C)=C/[C@@H]3CC[C@@H](O)[C@H](OC)C3)[C@H](C)[C@@H](O)CC1=O)[C@H](C)C[C@@H]2OC [Tacrolimus, tacrolimus]
Tacrolimus trough level [1, 11]: 5.0 ± 1.6 ng/mL
Tacrolimus trough level [1, 12]: 5.3 ± 1.3 ng/mL
Tacrolimus trough level [1, 13]: 6.3 ± 1.9 ng/mL
Tacrolimus trough level [1, 14]: 5.5 ± 1.6 ng/mL
Tacrolimus trough level [1, 15]: 5.4 ± 1.4 ng/mL
Tacrolimus trough level [1, 16]: 5.5 ± 1.6 ng/mL
Tacrolimus trough level [1, 17]: 5.7 ± 2.4 ng/mL
Tacrolimus trough level [1, 18]: 5.8 ± 2.0 ng/mL
Time in therapeutic range (TTR), P-CAB vs PPI group [6]: comparable between the two groups

COc1ccnc(C[S+]([O-])c2nc3ccc(OC(F)F)cc3[nH]2)c1OC (stereo not shown) [PPI, pantoprazole]
eGFR ([3]; Baseline): 57.7 ± 14.9 mL/min/1.73 m^2
eGFR ([3]; Week 4): 60.1 ± 14.8 mL/min/1.73 m^2
eGFR ([3]; Week 8): 63.6 ± 14.1 mL/min/1.73 m^2
eGFR ([3]; Week 12): 60.6 ± 14.7 mL/min/1.73 m^2
Allograft Loss [3]: 0 number
BPAR [3]: 0 number
RDQ score ([4]; Baseline): 3.2 ± 3.3
GERD-HRQL score [4, 10]: 2.8 ± 2.3
GERD-HRQL score ([4]; Week 4): 0.7 ± 1.2
RDQ score ([4]; Week 4): 0.3 ± 0.9
GERD-HRQL score ([4]; Week 8): 0.9 ± 1.8
RDQ score ([4]; Week 8): 0.4 ± 1.0
GERD-HRQL score ([4]; Week 12): 0.5 ± 1.1
RDQ score ([4]; Week 12): 0.7 ± 2.0
AE: Abdominal discomfort (Adverse event monitoring): 2 (8.0) number (%)
AE: Arthralgia (Adverse event monitoring): 0 (0.0) number (%)
AE: COVID-19 (Adverse event monitoring): 2 (8.0) number (%)
AE: Constipation (Adverse event monitoring): 0 (0.0) number (%)
AE: Diarrhea (Adverse event monitoring): 0 (0.0) number (%)
AE: Headache (Adverse event monitoring): 1 (4.0) number (%)
AE: Hypertension (Adverse event monitoring): 0 (0.0) number (%)
AE: Hypoglycemia (Adverse event monitoring): 0 (0.0) number (%)
AE: Myalgia (Adverse event monitoring): 1 (4.0) number (%)
AE: Nausea, vomiting (Adverse event monitoring): 0 (0.0) number (%)
AE: Productive cough, sputum (Adverse event monitoring): 0 (0.0) number (%)
AE: Pyrexia (Adverse event monitoring): 1 (4.0) number (%)
AE: Toothache (Adverse event monitoring): 1 (4.0) number (%)
AE: Upper respiratory tract infection (Adverse event monitoring): 1 (4.0) number (%)
AE: Urinary tract infection (Adverse event monitoring): 1 (4.0) number (%)
AE: Vertigo (Adverse event monitoring): 1 (4.0) number (%)
Participants with AEs (Adverse event monitoring): 7 (28.0) number (%)
Participants with SAEs (Adverse event monitoring): 0 (0.0) number (%)
Withdrawal due to AEs (Adverse event monitoring): 0 (0.0) number (%)
Overall incidence of AEs (Adverse event monitoring): 28.0%
Effect on trough levels of tacrolimus and cyclosporine ([7]; 12 solid organ transplant patients, five consecutive days of therapy): did not affect
Effect on serum trough levels of tacrolimus ([7]; liver transplant recipients, co-administration over one year): does not influence

COc1c(C)c2c(c(O)c1C/C=C(\C)CCC(=O)O)C(=O)OC2 [Mycophenolate, mycophenolate]
Mycophenolate trough level [2, 11]: 2.3 ± 1.4 µg/mL
Mycophenolate trough level [2, 12]: 2.5 ± 1.1 µg/mL
Mycophenolate trough level [2, 13]: 2.8 ± 1.8 µg/mL
Mycophenolate trough level [2, 14]: 2.7 ± 1.4 µg/mL
Mycophenolate trough level [2, 15]: 2.6 ± 1.3 µg/mL
Mycophenolate trough level [2, 16]: 2.7 ± 1.1 µg/mL
Mycophenolate trough level [2, 17]: 2.7 ± 2.4 µg/mL
Mycophenolate trough level [2, 18]: 2.6 ± 1.4 µg/mL
Time in therapeutic range (TTR), P-CAB vs PPI group [6]: comparable between the two groups

CNCc1cc(-c2ccccc2F)n(S(=O)(=O)c2cccnc2)c1 [vonoprazan]
Effect on tacrolimus concentration ([8]; KTRs, switching from rabeprazole to vonoprazan, two retrospective studies): increased
Effect on tacrolimus trough levels ([8]; conversion from rabeprazole to vonoprazan, regardless of CYP3A5 genotypes): did not alter
